According to ChEMBL document CHEMBL1129866, “S1 heterocyclic thrombin inhibitors” (Bioorg Med Chem Lett, 1997):

Legend:
Coagulation factor X = Coagulation factor X (Homo sapiens, UniProt P00742); experiment: Tested for selectivity against Coagulation factor X
Serine protease 1 = Serine protease 1 (Homo sapiens, UniProt P07477); experiment: Tested for selectivity against trypsin
Prothrombin = Prothrombin (Homo sapiens, UniProt P00734); experiment: Tested for the binding affinity against thrombin

Coagulation factor X, sequence (P00742 41-179 limits assumed): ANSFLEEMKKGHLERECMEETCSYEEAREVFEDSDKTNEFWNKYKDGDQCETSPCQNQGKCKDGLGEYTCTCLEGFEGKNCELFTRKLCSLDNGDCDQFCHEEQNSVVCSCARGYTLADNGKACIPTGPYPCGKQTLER
Coagulation factor X, sequence (P00742 235-488 limits assumed): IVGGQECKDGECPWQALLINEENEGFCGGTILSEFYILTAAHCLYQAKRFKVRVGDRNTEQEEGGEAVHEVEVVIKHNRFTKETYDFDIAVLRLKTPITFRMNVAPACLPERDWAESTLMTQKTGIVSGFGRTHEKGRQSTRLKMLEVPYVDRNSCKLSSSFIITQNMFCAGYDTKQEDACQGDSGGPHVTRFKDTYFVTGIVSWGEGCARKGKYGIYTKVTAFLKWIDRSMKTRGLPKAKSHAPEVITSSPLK
Serine protease 1, sequence (P07477 whole entry): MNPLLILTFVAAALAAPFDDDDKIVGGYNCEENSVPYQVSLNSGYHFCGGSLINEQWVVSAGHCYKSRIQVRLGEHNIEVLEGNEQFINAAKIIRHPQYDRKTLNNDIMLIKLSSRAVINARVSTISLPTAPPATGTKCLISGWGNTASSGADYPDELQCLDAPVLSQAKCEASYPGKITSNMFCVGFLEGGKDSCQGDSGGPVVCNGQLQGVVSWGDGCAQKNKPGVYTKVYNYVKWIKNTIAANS

Ki (Coagulation factor X) [µM]	Ki (Serine protease 1) [µM]	Ki (Prothrombin) [µM]	Compound
> 6	0.02	0.0017	CC(=O)N[C@H](Cc1ccccc1)C(=O)N1CCC[C@H]1C(=O)N[C@@H](CCCn1ccnc1N)B1O[C@@H]2CC3CC(C3(C)C)[C@]2(C)O1 (stereo partly specified)
> 6	> 1.2	0.043	CC(=O)N[C@H](Cc1ccccc1)C(=O)N1CCC[C@H]1C(=O)N[C@@H](CCCNc1cc(Cl)nc(N)n1)B1O[C@@H]2CC3CC(C3(C)C)[C@]2(C)O1 (stereo partly specified)
		0.15	CC(=O)N[C@H](Cc1ccccc1)C(=O)N1CCC[C@H]1C(=O)N[C@@H](CCCNc1ccnc(N)n1)B1O[C@@H]2CC3CC(C3(C)C)[C@]2(C)O1 (stereo partly specified)
> 6	0.214	0.0021	CCCCS(=O)(=O)N[C@H](Cc1ccccc1)C(=O)N1CCC[C@H]1C(=O)N[C@@H](CCCNc1cc(Cl)nc(N)n1)B1O[C@@H]2CC3CC(C3(C)C)[C@]2(C)O1 (stereo partly specified)
	> 1.2	2	CC(=O)N[C@H](Cc1ccccc1)C(=O)N1CCC[C@H]1C(=O)N[C@@H](CCCSc1ncccn1)B1O[C@@H]2CC3CC(C3(C)C)[C@]2(C)O1 (stereo partly specified)
		0.0088	CCCCS(=O)(=O)N[C@H](Cc1ccccc1)C(=O)N1CCC[C@H]1C(=O)N[C@@H](CCCSc1ncccn1)B1O[C@@H]2CC3CC(C3(C)C)[C@]2(C)O1 (stereo partly specified)
0.97	0.04	0.0032	CCCCS(=O)(=O)N[C@H](Cc1ccccc1)C(=O)N1CCC[C@H]1C(=O)N[C@@H](CCCn1ccnc1N)B1O[C@@H]2CC3CC(C3(C)C)[C@]2(C)O1 (stereo partly specified)
> 6	> 1.2	0.199	CC(=O)N[C@H](Cc1ccccc1)C(=O)N1CCC[C@H]1C(=O)N[C@@H](CCCn1ncnc1[N+](=O)[O-])B1O[C@@H]2CC3CC(C3(C)C)[C@]2(C)O1 (stereo partly specified)
> 6	> 1.2	0.507	CC(=O)N[C@H](Cc1ccccc1)C(=O)N1CCC[C@H]1C(=O)N[C@@H](CCCn1ncnc1N)B1O[C@@H]2CC3CC(C3(C)C)[C@]2(C)O1 (stereo partly specified)
6	0.027	0.067	CC(=O)N[C@H](Cc1ccccc1)C(=O)N1CCC[C@H]1C(=O)N[C@@H](CCCn1ccnc1)B1O[C@@H]2CC3CC(C3(C)C)[C@]2(C)O1 (stereo partly specified)
6	> 1.2	0.015	CCCCS(=O)(=O)N[C@H](Cc1ccccc1)C(=O)N1CCC[C@H]1C(=O)N[C@@H](CCCn1ccnc1[N+](=O)[O-])B1O[C@@H]2CC3CC(C3(C)C)[C@]2(C)O1 (stereo partly specified)
> 6	> 1.2	0.65	CC(=O)N[C@H](Cc1ccccc1)C(=O)N1CCC[C@H]1C(=O)N[C@@H](CCCn1ccnc1[N+](=O)[O-])B1O[C@@H]2CC3CC(C3(C)C)[C@]2(C)O1 (stereo partly specified)
0.009			CC(=O)N[C@H](Cc1ccccc1)C(=O)N1CCC[C@H]1C(=O)N[C@@H](CCCN=C(N)N)B(O)O
6	> 1.2	0.35	CC(=O)N[C@H](Cc1ccccc1)C(=O)N1CCC[C@H]1C(=O)N[C@@H](CCCn1nnnc1N)B1O[C@@H]2CC3CC(C3(C)C)[C@]2(C)O1 (stereo partly specified)
> 6	> 1.2	0.6	CC(=O)N[C@H](Cc1ccccc1)C(=O)N1CCC[C@H]1C(=O)N[C@@H](CCCNc1ncccn1)B1O[C@@H]2CC3CC(C3(C)C)[C@]2(C)O1 (stereo partly specified)
> 6	> 1.2	0.23	CC(=O)N[C@H](Cc1ccccc1)C(=O)N1CCC[C@H]1C(=O)N[C@@H](CCCNc1ccccn1)B1O[C@@H]2CC3CC(C3(C)C)[C@]2(C)O1 (stereo partly specified)
